Assays:
ALDH1A3 [1] = molecular target: T1, ALDH1A3 (Homo sapiens, UniProt P47895); test: ALDH1A3 cellular assay (ALDEFLUOR) in WM266.4 melanoma cells; format: cell-based; settings: WM266.4 cells; 60 min incubation; percentage of ALDH-positive cells
T1 sequence (P47895 1-512): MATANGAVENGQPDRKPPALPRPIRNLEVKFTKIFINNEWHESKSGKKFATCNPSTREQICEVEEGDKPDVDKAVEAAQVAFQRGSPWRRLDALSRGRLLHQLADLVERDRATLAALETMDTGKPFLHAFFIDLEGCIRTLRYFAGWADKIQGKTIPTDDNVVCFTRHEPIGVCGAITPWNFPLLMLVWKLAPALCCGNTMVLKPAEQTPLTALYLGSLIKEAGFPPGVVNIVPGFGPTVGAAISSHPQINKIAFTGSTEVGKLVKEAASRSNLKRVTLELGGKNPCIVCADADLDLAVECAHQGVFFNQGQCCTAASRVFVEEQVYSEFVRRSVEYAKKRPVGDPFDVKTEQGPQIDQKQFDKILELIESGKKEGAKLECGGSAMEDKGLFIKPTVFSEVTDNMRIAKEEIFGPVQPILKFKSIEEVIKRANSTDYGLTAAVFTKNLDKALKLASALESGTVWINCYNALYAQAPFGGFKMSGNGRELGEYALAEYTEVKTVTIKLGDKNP
Source text: Materials: WM266.4 cells were procured from ATCC. (WM266-4 is a metastatic human melanoma cell line.) The ALDEFLUOR™ Assay kit (cat. no. 01700) and Aldefluor buffer (cat. no. 01702) were procured from StemCell Technologies. Dulbecco's Modified Eagle Medium (DMEM), FluoroBrite DMEM, Glutamax and Hoechst 33342 were purchased from ThermoFisher. Verapamil was obtained from Fluorochem. FBS was obtained from Sigma. Echo Qualified 384-well low-dead-volume microplate and Echo Qualified 384-well polypropylene microplate were purchased from Labcyte, and the Microclear black sterile polystyrene microplate from Greiner Bio-One.
Method: Intracellular inhibition of ALDH1A3 was assessed using the ALDEFLUOR™ Assay kit. The activated ALDEFLUOR™ reagent, BODIPY-aminoacetaldehyde (BAAA), is a fluorescent non-toxic substrate for ALDH enzymes, which freely diffuses into intact and viable cells. In the presence of ALDH enzyme activity, BAAA is converted into BODIPY-aminoacetate (BAA), which is retained inside the cells. The amount of fluorescent reaction product is proportional to the ALDH activity in the cells and is measured using an imaging cytometer. Active efflux of the reaction product is inhibited by an efflux inhibitor (Verapamil) in the ALDEFLUOR™ Assay Buffer.
A frozen vial of cells was recovered into a T225 flask containing DMEM, high glucose, 10% FBS, 1% glutamax, 1% HEPES. The following day, media was changed and cells were ready for assay from 72 hours after recovery. Cells were transferred into FluoroBrite DMEM (plus 10% FBS, 1% glutamax and 1% HEPES) and diluted to 2.5×10^5 cells/mL. 30 μL of cells were added to each well to give 7500 cells/well and then incubated overnight at 37° C., 5% CO2. After overnight incubation, the media was aspirated and replaced by 20 μL substrate/Hoechst buffer solution. Each plate requires 9 mL of solution comprising, 9 mL ALDEFLUOR assay buffer, 18 μL BAAA substrate (final concentration 500 nM), 4.5 μL Hoechst 33342 (final concentration 5 μg/mL) and 4.5 μL Verapamil (final concentration 50 μM). Compounds were prepared for dosing using the Echo acoustic dispenser by aliquoting into a source plate and dosed directly onto the cell assay plate to give a 10 point dose response per compound ranging from 10 μM to 0.0005 μM final concentration in 3-fold dilution steps. Plates were then incubated for 60 minutes at 37° C., 5% CO2. The buffer was then aspirated and cells washed twice in ice-cold PBS. Plates were kept on ice and 30 μL of cold Aldefluor buffer with 50 μM verapamil dispensed per well. The plates were then imaged using the CellInsight fluorescent microscope. Hoechst fluorescence in the 405 nm channel indicated the nuclear area and this was used to define nuclei and then the surrounding cellular area. Fluorescence in the 488 nm channel of the defined cellular area indicates ALDH1A3 activity. The percentage of cells positive for ALDH activity was plotted versus compound concentration to generate EC50 values using curve fitting parameters defined in Dotmatics software.

ALDH1A3 [2] = molecular target: T1, ALDH1A3; test: Primary biochemical assay, NAD(P)H-Glo Detection System; design: His-tag; made in house; host or cells: E. coli Rosetta (DE3); settings: 30 min pre-incubation, propionaldehyde and NAD at Km
Source text: Cloning: Open reading frames corresponding to the protein coding sequences of full length human ALDH1A1 (Uniprot ID P00352), ALDH1A2 (094788) and ALDH1A3 (P47895) were polymerase chain reaction (PCR) amplified from human cDNA and inserted into the multi-cloning sites of the commercially available (Novagen) E. coli expression vectors pET47b (ALDH1A1, EcoRI restriction site; ALDH1A2, BamHI and EcoRI sites) or pET28a (ALDH1A3, NdeI and BamHI sites), using standard molecular genetic techniques. Recombinant DNA products were sequence verified prior to use in expression studies.
Expression: Expression constructs were transformed into the E. coli strain Rosetta (DE3) (Merck) and individual colonies used to inoculate 10 mL lysogen broth (LB) medium supplemented with kanamycin and chloramphenicol at 50 μg/mL and 34 μg/mL, respectively. Cultures were grown to saturation overnight at 37° C., prior to being used to sub-inoculate fresh 1 L LB medium cultures (plus antibiotics, as before). 1 L cultures were grown at 37° C., 200 rpm, throughout the day until the optical density at 600 nm (OD600) reached ˜0.8, at which point growth temperature was reduced to 18° C. and 1 mM isopropyl β-d-1-thiogalacto pyranoside (IPTG) added to induce protein expression.
Cultures were left overnight (at least 16 h) under these conditions and the following day harvested by centrifugation (4000 G, 10 minutes). Culture supernatant was discarded and cell pellets stored at −80° C. until further processing.
Purification: Cell pellets were thawed on ice, re-suspended in Ni Affinity Buffer A (20 mM HEPES pH 7.5, 300 mM NaCl, 20 mM imidazole, 1 mM tris(2-carboxyethyl)phosphine (TCEP)) with protease inhibitors (cOmplete Ultra protease inhibitor, Roche), and lysed by sonication. Lysates were clarified by centrifugation at 18,000 G, 4° C., for 40 minutes, and loaded directly onto a pre-equilibrated (Buffer A) 5 mL HisTrap Fast Flow column (GE Healthcare) by way of an AKTA Fast Protein Liquid Chromatography (FPLC) system. The column was sequentially treated with 6 column volumes (CV) 100% Buffer A, 8 CV of 90% Buffer A:10% Buffer B (20 mM 4-(2-hydroxyethyl)-1-piperazineethanesulfonic acid (HEPES) pH 7.5, 300 mM NaCl, 500 mM imidazole, 1 mM TCEP) and finally a linear gradient from 10-70% Buffer B over 8 CV to elute recombinant His-tagged protein. Relevant fractions (as measured by 280 nm absorbance) collected during elution were pooled and subjected to further purification by size exclusion chromatography (Superdex 200 26/600, GE Healthcare, running buffer 20 mM 2-(carbamoylmethylamino)ethanesulfonic acid (ACES) pH 7.5, 1 mM TCEP). Relevant fractions from this step were pooled, aliquoted, and stored at −80° C. until required for compound profiling assays.
Materials: ALDH2 was purchased from Abnova. Tris(hydroxymethyl)aminomethane (Tris) was purchased from MP Biomedicals. TCEP, ethylenediaminetetraacetic acid (EDTA), propionaldehyde, DMSO and Tween-20 were purchased from Sigma. Nicotinamide adenine dinucleotide (NAD) was obtained from Abcam. The NAD(P)H-Glo™ Detection System was purchased from Promega. White, non-binding surface, 384 well plates were supplied by Corning (#3574).
Method: Inhibition of ALDH1A3 was assessed using the NAD(P)H-Glo™ Detection System (Cat. No. G9062) from Promega. This assay detects the production of NADH from NAD by ALDH1A3 via the coupled enzymatic conversion of a proluciferin reductase substrate to generate a luminescent signal. Inhibition of ALDH1A3 by small molecule inhibitors will result in reduction or abrogation of luminescence signal increase above background. Inhibition of ALDH1A1, ALDH1A2 and ALDH2 (selectivity assays) were assessed using the same assay.
Compounds were dosed into Corning 384 well assay plates using an Echo acoustic dispenser to give 10 point curves in a 3-fold dilution series. Compounds were dispensed from a 20 mM DMSO stock and initially screened at a top concentration of 20 μM (ALDH1A3) or 250 μM (ALDH1A1, ALDH1A2 & ALDH2). […]

Which IC50 (ALDH1A3 [1]) does the source give for `O=C1CCc2cc(NC(=O)c3ncccc3-c3cccc(F)c3)ccc2N1` [ALDHI-1020, 3-(3-fluorophenyl)-N-(2-oxo-3,4-dihydro-1H-quinolin-6-yl)pyridine-2-carboxamide] here?
The IC50 was 1 to 10 µM.

And the IC50 (ALDH1A3 [2])?
Its IC50 is 1 to 10 µM.

From patent publication US20240174634A1, “Aldehyde Dehydrogenase Inhibitors and Their Therapeutic Use” (priority 2020, published 2024)
